Measurements: US20090069343A1, “Combination Histamine H1R and H4R Antagonist Therapy for Treating Pruritus” (priority 2006, published 2009)

Assays:
Format in all cases: in vivo, mouse
[1] = tested on: CD-1 mice, histamine-induced itch; assay: Histamine-induced itch, Example 1a; conditions: oral dose 20 min before i.d. histamine, FIG. 8
Description: Methods. Experiments and procedures were performed under on-site IACUC standards and regulations. Female CD-1 mice (Charles River Hollister, Calif.) of approximately 10-12 weeks of age were used. Mice were housed under controlled light (6:00-18:00 h) and temperature (22° C.) with food and water available ad libitum. Histamine diphosphate (Sigma, St. Louis, Mo.) was dissolved in Dulbecco's phosphate buffered saline (PBS, pH=7.4) at various concentrations. H4R Inhibitor 1 was synthesized as described by Jablonowski et al. (J. Med. Chem. (2003), 46, 3957-3960), dissolved in a vehicle of 20% HPBCD/water at various concentrations, and administered per os (p.o.; by mouth) at a volume of 10 ml/kg. Antagonists of other histamine receptors, H1R (diphenhydramine and desloratadine), H2R (ranitidine) and H3R (1-[3-(4-piperidin-1-ylmethyl-phenoxy)-propyl]-piperidine, (“H3R Antagonist 1”; synthesized as described by Barbier et al., British J. Pharmacology (2004), 143: 649-661) were formulated similarly for use in experiments. In all experiments the hair was clipped over the rostral part of the back 24 hours prior to i.d. injection of pruritogen. Where noted, animals received an oral dose of histamine receptor antagonist 20 minutes prior to injection of pruritogen. Animals were injected i.d. with 20 μl of histamine. PBS was given as the vehicle control (“V). Immediately after intradermal injection, the animals were returned to an acrylic cage (approx. 15 cm dia×30 cm) to which they had been acclimated for at least 1 hour prior to the experiment, for observation of itch responses.

[2] = tested on: mice, histamine-induced scratching; assay: Histamine-induced scratching, background example; conditions: FIG. 4
Description: To evaluate the direct role of histamine in the pruritic response, histamine was injected in to the skin of mice and the amount of scratching measured.

[3] = tested on: CD-1 mice, Compound 48/80-induced itch; assay: Compound 48/80-induced itch, Example 1b; conditions: oral dose 20 min before i.d. Compound 48/80, FIG. 9
Description: Methods. Experiments and procedures were performed under on-site IACUC standards and regulations. Female CD-1 mice (Charles River Hollister, Calif.) of approximately 10-12 weeks of age were used. Mice were housed under controlled light (6:00-18:00 h) and temperature (22° C.) with food and water available ad libitum. Compound 48/80 (Sigma, St. Louis, Mo.) was dissolved in Dulbecco's phosphate buffered saline (PBS, pH=7.4) at 5 mg/ml. H4R Inhibitor 1 (synthesized as previously described) was dissolved in a vehicle of 20% HPBCD/water at various concentrations and administered p.o. at a volume of 10 ml/kg. […] In all experiments the mouse hair was clipped over the rostral part of the back 24 hours prior to i.d. injection of pruritogen. Where noted, animals received an oral dose of histamine receptor antagonist 20 min prior to injection of pruritogen. Animals were injected i.d. with 20 μl of Compound 48/80 or were given PBS as a vehicle control. Immediately after intradermal injection, the animals were returned to an acrylic cage (approx. 15 cm diameter×30 cm height) to which they had been acclimated for at least 1 h prior to the experiment, for observation of itch responses.

[4] = tested on: mice, H4R agonist-induced scratching; assay: Selective H4R agonist-induced scratching, background example; conditions: oral administration; FIG. 6
[5] = tested on: Balb/c mice, Compound 48/80-induced itch response; assay: Compound 48/80-induced itch response (scratches in 20 min), background example; conditions: for inhibition of itch response: Compound 48/80, FIG. 2
Description: The role of histamine H4 receptor in itch responses was evaluated in mice.

SMILES | effect on histamine-induced itch [1] | inhibition of histamine-induced scratching ([2]; 3 mg/kg oral pre-treatment) [%] | inhibition of histamine-induced scratching ([2]; 30 mg/kg oral pre-treatment (maximal)) [%] | effect on histamine-induced scratching ([2]; oral pre-treatment) | effect on Compound 48/80-induced itch [3] | effect on H4R agonist-induced scratching [4] | inhibition of itch response ([5]; 3 mg/kg) [%] | reduction of itch response ([5]; 30 mg/kg orally prior to Compound 48/80 injection, Balb/c mice) [%] | inhibition of itch response ([5]; 100 mg/kg (maximally active)) [%]
c1cc(OCCCN2CCCCC2)ccc1CN1CCCCC1 [H3R Antagonist 1, 1-[3-(4-piperidin-1-ylmethyl-phenoxy)-propyl]-piperidine] | neither the H2R antagonist ranitidine nor the H3R antagonist demonstrated significant inhibition |  |  |  |  |  |  |  | 
CN1CCN(C(=O)c2cc3cc(Cl)ccc3[nH]2)CC1 [H4R Inhibitor 1] | significant reduction of histamine-induced itch | 17 | 75 | dose-dependently inhibited | significantly reduced the itch | inhibitable | 12 | 62.5 | 68
Clc1ccc2c(c1)CCc1cccnc1C2=C1CCNCC1 [desloratadine] | no effect |  |  |  |  |  |  |  | 
CN(C)CCOC(c1ccccc1)c1ccccc1 [diphenhydramine, reference compound] | Small but significant inhibition |  |  |  | Small but significant inhibition |  |  |  | 
